Reference: ChEMBL document CHEMBL1125620, “Synthesis and biological evaluation of a series of substituted N-alkoxyimides and -amides as potential atypical antipsychotic agents” (J Med Chem, 1991)

Key:
[1] = system: Mus musculus; assay: Inhibition of apomorphine induced mouse climbing, administered intraperitoneally; assay type: functional; settings: ip
[2] = biological target: T1, 5-hydroxytryptamine receptor 1A (Rattus norvegicus, UniProt P19327); assay: Affinity for 5-hydroxytryptamine 1A receptor labeled with [3H]8-OH-DPAT radioligand in hippocampus tissue; assay type: tissue-based
T1 sequence (P19327 whole entry): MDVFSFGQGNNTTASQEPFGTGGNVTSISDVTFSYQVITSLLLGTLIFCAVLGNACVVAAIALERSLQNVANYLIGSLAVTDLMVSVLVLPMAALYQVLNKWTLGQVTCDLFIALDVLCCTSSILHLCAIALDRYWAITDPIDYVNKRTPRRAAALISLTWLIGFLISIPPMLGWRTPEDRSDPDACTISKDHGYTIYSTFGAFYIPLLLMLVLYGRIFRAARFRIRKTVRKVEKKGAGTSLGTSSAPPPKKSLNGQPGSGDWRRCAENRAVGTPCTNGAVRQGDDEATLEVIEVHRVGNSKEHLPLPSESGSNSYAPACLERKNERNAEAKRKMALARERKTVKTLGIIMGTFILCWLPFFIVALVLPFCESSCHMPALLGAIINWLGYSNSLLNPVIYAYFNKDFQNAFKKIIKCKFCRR

[3] = biological target: Serotonin 2 (5-HT2) receptor (Rattus norvegicus, UniProt P30994+P08909+P14842); assay: Compound was measured for affinity at 5-hydroxytryptamine 2 receptor in rat cortical by [3H]spiroperidol displacement.
[4] = biological target: D(2) dopamine receptor (Rattus norvegicus, UniProt P61169); assay: Compound was measured for affinity at Dopamine receptor D2 labeled with [3H]spiroperidol radioligand in striatum tissue; assay type: tissue-based
[5] = biological target: 5-hydroxytryptamine receptor 1B (Rattus norvegicus, UniProt P28564); assay: compound was measured for affinity against 5-hydroxytryptamine 1B receptor labelled with [3H]5-HT radioligand in striatum tissue; assay type: tissue-based
[6] = biological target: T2, Alpha adrenergic receptor 1A and 1B (Rattus norvegicus, UniProt P15823+P43140); assay: compound was measured as affinity for Alpha-1 adrenergic receptor labeled with [3H]WB-4101 radioligand in whole brain tissue
T2 sequence (P15823 whole entry): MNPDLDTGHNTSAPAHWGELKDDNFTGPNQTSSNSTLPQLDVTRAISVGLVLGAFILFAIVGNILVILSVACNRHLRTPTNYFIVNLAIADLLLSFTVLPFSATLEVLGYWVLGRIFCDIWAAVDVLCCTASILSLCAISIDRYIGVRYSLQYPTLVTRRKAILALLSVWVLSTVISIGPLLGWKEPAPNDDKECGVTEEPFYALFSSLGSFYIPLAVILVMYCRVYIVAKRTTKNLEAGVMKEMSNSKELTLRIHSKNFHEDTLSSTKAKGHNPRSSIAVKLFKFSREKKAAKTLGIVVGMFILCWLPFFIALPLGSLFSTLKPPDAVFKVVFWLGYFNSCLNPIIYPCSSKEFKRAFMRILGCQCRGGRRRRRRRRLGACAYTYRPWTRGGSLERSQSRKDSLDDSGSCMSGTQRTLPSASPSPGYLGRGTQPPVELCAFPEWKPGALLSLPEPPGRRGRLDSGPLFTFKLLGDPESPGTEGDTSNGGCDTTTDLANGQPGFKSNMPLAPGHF
T2 sequence (P43140 whole entry): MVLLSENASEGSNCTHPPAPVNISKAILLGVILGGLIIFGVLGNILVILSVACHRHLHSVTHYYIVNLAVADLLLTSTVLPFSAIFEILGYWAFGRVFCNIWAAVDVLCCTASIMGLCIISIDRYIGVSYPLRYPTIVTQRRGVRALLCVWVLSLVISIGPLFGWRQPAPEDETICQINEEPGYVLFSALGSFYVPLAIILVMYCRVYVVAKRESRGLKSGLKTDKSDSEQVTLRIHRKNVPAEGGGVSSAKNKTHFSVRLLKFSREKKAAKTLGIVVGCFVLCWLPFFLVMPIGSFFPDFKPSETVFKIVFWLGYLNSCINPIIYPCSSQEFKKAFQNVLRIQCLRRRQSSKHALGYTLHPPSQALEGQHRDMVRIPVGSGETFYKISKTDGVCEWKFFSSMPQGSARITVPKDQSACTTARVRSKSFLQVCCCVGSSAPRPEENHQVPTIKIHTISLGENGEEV

[7] = biological target: D(1A) dopamine receptor (Rattus norvegicus, UniProt P18901); assay: compound was measured as affinity for dopamine receptor D1 labeled with [3H]-SCH- 23390 radioligand in striatum tissue; assay type: tissue-based
[8] = system: Rattus norvegicus; assay: In vivo activity administered intraperitoneally was determined by pole climb escape failures in rat; assay type: functional; settings: ip
[9] = system: Rattus norvegicus; assay: In vivo activity administered orally was determined by intracranial self stimulation in rat; assay type: functional; settings: po
[10] = system: Rattus norvegicus; assay: In vivo activity was measured by the pole climb avoidance in rat; assay type: functional
[11] = system: Rattus norvegicus; assay: In vivo inhibition of apomorphine induced stereotypy in rat by the compound administered intraperitoneally; assay type: functional; settings: ip
[12] = system: Rattus norvegicus; assay: In vivo inhibition of amphetamine induced stereotypy in rat by the compound administered intraperitoneally at […]; assay type: functional
[13] = biological target: Sigma non-opioid intracellular receptor 1 (Rattus norvegicus, UniProt Q9R0C9); assay: compound was measured as affinity for sigma receptor labeled with [3H]-SKF- […] radioligand in slide-mounted slices
[14] = system: Rattus norvegicus; assay: In vivo activity administered intraperitoneally was determined by social interaction in rat at 1.0 mg/kg
[15] = system: Rattus norvegicus; assay: In vivo activity administered intraperitoneally was determined by induction of catalepsy in rat at 30 mg/kg
[16] = system: Rattus norvegicus; assay: In vivo activity administered intraperitoneally was determined by induction of catalepsy in rat at 40 mg/kg
[17] = system: Rattus norvegicus; assay: In vivo activity administered intraperitoneally was determined by intracranial self stimulation in rat; assay type: functional; settings: ip
[18] = system: Rattus norvegicus; assay: In vivo activity administered intraperitoneally was determined by pole climb avoidance in rat; assay type: functional; settings: ip
[19] = system: Rattus norvegicus; assay: In vivo activity was measured by the intracranial self stimulation in rat; assay type: functional
[20] = system: Rattus norvegicus; assay: In vivo activity administered intraperitoneally was determined by induction of catalepsy in rat; assay type: functional; settings: ip
[21] = system: Rattus norvegicus; assay: In vivo inhibition of amphetamine induced stereotypy in rat by the compound administered intraperitoneally; assay type: functional; settings: ip
[22] = system: Rattus norvegicus; assay: Activity administered intraperitoneally was determined by social interaction of rat at […]; assay type: functional
[23] = system: Rattus norvegicus; assay: In vivo activity administered intraperitoneally was determined by induction of catalepsy in rat at […]; assay type: functional
[24] = system: Rattus norvegicus; assay: In vivo activity administered intraperitoneally was determined by social interaction of rat at […]; assay type: functional

D(2) dopamine receptor, sequence (P61169 whole entry): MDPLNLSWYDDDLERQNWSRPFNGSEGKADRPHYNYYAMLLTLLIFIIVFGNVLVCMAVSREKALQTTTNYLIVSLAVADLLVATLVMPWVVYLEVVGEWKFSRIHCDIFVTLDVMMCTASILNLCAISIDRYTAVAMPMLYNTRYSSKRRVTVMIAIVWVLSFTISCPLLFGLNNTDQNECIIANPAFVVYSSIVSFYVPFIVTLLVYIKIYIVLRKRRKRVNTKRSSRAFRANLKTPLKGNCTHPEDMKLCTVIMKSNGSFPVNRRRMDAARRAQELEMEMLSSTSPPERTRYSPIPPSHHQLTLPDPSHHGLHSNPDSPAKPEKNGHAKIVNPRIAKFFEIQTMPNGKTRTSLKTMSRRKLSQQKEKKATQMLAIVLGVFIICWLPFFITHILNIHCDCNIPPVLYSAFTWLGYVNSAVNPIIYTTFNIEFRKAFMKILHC
D(1A) dopamine receptor, sequence (P18901 whole entry): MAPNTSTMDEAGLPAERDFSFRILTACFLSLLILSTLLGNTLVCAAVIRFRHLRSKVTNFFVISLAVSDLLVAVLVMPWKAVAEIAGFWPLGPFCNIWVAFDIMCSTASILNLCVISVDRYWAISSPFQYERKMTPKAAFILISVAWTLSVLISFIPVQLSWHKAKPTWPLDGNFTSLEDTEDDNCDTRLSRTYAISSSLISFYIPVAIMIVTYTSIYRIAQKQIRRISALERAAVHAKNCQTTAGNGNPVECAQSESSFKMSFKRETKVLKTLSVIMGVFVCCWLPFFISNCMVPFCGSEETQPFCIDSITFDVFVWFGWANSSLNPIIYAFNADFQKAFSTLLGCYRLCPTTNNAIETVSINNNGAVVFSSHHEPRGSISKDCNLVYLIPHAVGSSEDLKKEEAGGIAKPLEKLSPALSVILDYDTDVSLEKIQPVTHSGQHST
5-hydroxytryptamine receptor 1B, sequence (P28564 whole entry): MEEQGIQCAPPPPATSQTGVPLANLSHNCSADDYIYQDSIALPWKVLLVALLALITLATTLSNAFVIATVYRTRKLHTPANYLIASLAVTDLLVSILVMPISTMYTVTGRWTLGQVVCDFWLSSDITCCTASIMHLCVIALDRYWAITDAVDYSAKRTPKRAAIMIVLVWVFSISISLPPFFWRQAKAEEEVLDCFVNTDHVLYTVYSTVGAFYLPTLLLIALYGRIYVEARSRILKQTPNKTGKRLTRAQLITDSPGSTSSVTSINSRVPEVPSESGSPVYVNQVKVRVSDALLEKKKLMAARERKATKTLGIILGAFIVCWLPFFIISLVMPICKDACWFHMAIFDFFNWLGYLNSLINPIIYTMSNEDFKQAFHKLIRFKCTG
Sigma non-opioid intracellular receptor 1, sequence (Q9R0C9 whole entry): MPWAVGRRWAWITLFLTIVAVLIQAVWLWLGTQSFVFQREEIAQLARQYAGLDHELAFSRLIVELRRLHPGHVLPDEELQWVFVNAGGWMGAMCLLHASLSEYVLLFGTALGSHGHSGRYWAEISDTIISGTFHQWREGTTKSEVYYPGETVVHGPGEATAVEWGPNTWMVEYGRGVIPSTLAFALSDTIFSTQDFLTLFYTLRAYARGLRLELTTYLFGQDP

SMILES	ED50 [1] [mg/kg]	IC50 [2] [nM]	IC50 [3] [nM]	also measured
CSc1cccc(N2CCN(CCCON3C(=O)c4ccccc4C3=O)CC2)c1	> 20	–	–	–
O=C1CC2(CCCC2)CC(=O)N1OCCCN1CCN(c2cccc(C(F)(F)F)c2)CC1	> 20	30	–	–
COc1ccccc1N1CCN(CCCON2C(=O)CC3(CCCC3)CC2=O)CC1	11	110	1190	–
O=C1c2ccccc2C(=O)N1OCCCN1CCN(c2nsc3ccccc23)CC1	> 20	> 20000	–	–
O=C1c2ccccc2C(=O)N1OCCCN1CCN(c2cccc(Cl)c2)CC1	> 20	–	–	–
COc1ccccc1N1CCN(CCCON2C(=O)CC3(CCCC3)CC2O)CC1 (stereo unspecified)	> 20	60	–	–
O=C1CC2(CCCC2)CC(=O)N1OCCCN1CCN(C2=NS(=O)(=O)c3ccccc32)CC1	> 20	> 20000	> 20000	–
O=C1c2ccccc2C(=O)N1OCCCN1CCN(c2cccc(C(F)(F)F)c2)CC1	> 20	–	–	IC50 [4]: > 20000 nM
Cc1ccccc1N1CCN(CCCON2C(=O)c3ccccc3C2=O)CC1	> 20	–	–	–
O=C1CC2(CCCC2)CC(=O)N1OCCCN1CCN(c2cccc(Cl)c2)CC1	> 20	40	–	–
Cc1cccc(N2CCN(CCCON3C(=O)CC4(CCCC4)CC3=O)CC2)c1	26.5	90	390	–
O=C1CC2(CCCC2)CC(=O)N1OCCCN1CCN(c2ccccc2Cl)CC1	> 20	220	–	–
COc1ccccc1N1CCN(CCCON2C(=O)c3ccccc3C2=O)CC1	> 20	6900	–	IC50 [4]: > 20000 nM
CSc1cccc(N2CCN(CCCON3C(=O)CC4(CCCC4)CC3=O)CC2)c1	> 20	50	–	–
Cc1cccc(N2CCN(CCCON3C(=O)c4ccccc4C3=O)CC2)c1	> 20	–	–	–
O=C1CC2(CCCC2)CC(=O)N1OCCN1CCN(c2nsc3ccccc23)CC1	> 20	970	240	–

SMILES	ED50 [1] [mg/kg]	IC50 [2] [nM]	IC50 [3] [nM]	also measured
O=C1CC2(CCCC2)CCN1OCCCN1CCN(c2nsc3ccccc23)CC1	17.8	30	10	–
COc1ccccc1N1CCN(CCCON2CCC3(CCCC3)CC2=O)CC1	> 20	70	2700	–
O=C1CC2(CCCC2)CC(=O)N1OCCN1CCN(c2ncccn2)CC1	> 20	–	–	–
O=C1CC2(CCCC2)CC(=O)N1OCCCN1CCN(c2ncccn2)CC1	> 20	380	–	–
O=C1CC2(CCCC2)CC(O)N1OCCCN1CCN(c2nsc3ccccc23)CC1 (stereo unspecified)	> 20	80	10	–
O=C1c2ccccc2C(=O)N1OCCCN1CCN(c2ccc3ccccc3n2)CC1	> 20	–	–	–
O=C1CC2(CCCC2)CC(=O)N1OCCCN1CCN(c2nsc3ccccc23)CC1	5.7	110	20	IC50 [5]: 5530 nM; IC50 [6]: 10 nM; IC50 [7]: 6600 nM; ED50 [8]: > 20 mg/kg; ED50 [9]: 12.5 mg/kg; ED50 [10]: 2.5 mg/kg; ED50 [11]: 35.4 mg/kg; Inhibition [12]: 17%; IC50 [13]: 1100 nM; Increase [14]: 24%; Catalepsy [15]: 33%; Catalepsy [16]: 83%
COc1ccccc1N1CCN(CCON2C(=O)CC3(CCCC3)CC2=O)CC1	> 20	370	3200	–
O=C1CC2(CCCC2)CC(=O)N1OCCCN1CCN(c2nc3ccccc3s2)CC1	> 20	2200	8100	–
Cc1cccc(N2CCN(CCCON3C(=O)CC4(CCCC4)CC3=O)CC2)c1C	39.7	170	250	–
O=C1CC2(CCCC2)CC(=O)N1OCCCN1CCN(c2ccc3ccccc3n2)CC1	> 20	–	–	–
CN1CCN(C2=Nc3cc(Cl)ccc3Nc3ccccc32)CC1 [CLOZAPINE]	8.1	–	–	ED50 [8]: > 80 mg/kg; ED50 [17]: 9.1 mg/kg; ED50 [18]: 13.1 mg/kg
O=C(CCCN1CCC(O)(c2ccc(Cl)cc2)CC1)c1ccc(F)cc1 [HALOPERIDOL]	0.25	–	–	ED50 [8]: 7.3 mg/kg; ED50 [19]: 0.077 mg/kg; ED50 [20]: 0.659 mg/kg; ED50 [18]: 0.53 mg/kg; ED50 [21]: 0.215 mg/kg; ED50 [11]: 0.31 mg/kg
Cc1nc2n(c(=O)c1CCN1CCC(c3noc4cc(F)ccc34)CC1)CCCC2 [RISPERIDONE]	0.06	–	–	ED50 [8]: 1.3 mg/kg; ED50 [20]: 5.7 mg/kg; ED50 [17]: 0.13 mg/kg; ED50 [18]: 0.48 mg/kg; ED50 [11]: 3.2 mg/kg; Inhibition [22]: 27%
O=C1CC2(CCCC2)CC(=O)N1CCCCN1CCN(c2nsc3ccccc23)CC1 [TIOSPIRONE]	0.84	–	–	ED50 [8]: 2.77 mg/kg; ED50 [17]: 0.124 mg/kg; ED50 [18]: 0.93 mg/kg; ED50 [11]: 3.7 mg/kg; Inhibition [23]: 67%; Inhibition [24]: 34%
